Values of other authors in PMC4918035, “A human and animal model-based approach to investigating the anti-inflammatory profile and potential of the 5-HT2B receptor antagonist AM1030” (Journal of Inflammation (London, England), 2016).

Biological target: T1, 5-HT2B receptor (Homo sapiens, UniProt P41595)
T1 construct: gene HTR2B
Assay: receptor binding (Ki) and functional inhibition (IC50 […]); assay details not described

T1 sequence (P41595 whole entry): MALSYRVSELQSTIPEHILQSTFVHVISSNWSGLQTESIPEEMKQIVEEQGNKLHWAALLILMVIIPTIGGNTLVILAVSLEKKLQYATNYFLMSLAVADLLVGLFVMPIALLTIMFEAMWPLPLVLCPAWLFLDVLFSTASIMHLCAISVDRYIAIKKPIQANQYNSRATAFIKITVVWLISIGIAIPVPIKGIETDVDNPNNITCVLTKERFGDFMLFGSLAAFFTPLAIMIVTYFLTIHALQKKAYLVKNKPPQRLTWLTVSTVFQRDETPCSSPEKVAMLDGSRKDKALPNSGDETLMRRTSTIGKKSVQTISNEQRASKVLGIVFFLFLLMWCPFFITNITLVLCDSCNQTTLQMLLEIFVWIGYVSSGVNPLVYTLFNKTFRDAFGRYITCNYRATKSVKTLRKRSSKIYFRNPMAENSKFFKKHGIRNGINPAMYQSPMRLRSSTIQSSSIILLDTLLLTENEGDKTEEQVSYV

Question: Which Ki does the source give for AM1030 here?
Answer: The Ki was 330 nM.
